Measurements: patent US20190270712A1, “COMPOSITIONS FOR THE TREATMENT OF PULMONARY FIBROSIS” (Vectus Biosystems Limited, priority 2016, published 2019)

Experiments:
[1] = system: human small airway epithelial cells; experiment: In vitro screening: xCELLigence SP cellular impedance (cell index); format: cell-based; settings: 10 μM, 20 μM or 30 μM test compound, 0.25% DMSO, measured every 20 seconds for 3 hours
Procedure: The xCELLigence SP system (Roche) was used to measure changes in cellular impedance (cell index) following the treatment of human small airway epithelial cells (ATCC) with test compound.
Briefly, 50 μl of cell culture medium (DMEM low glucose supplemented with 15% fetal bovine serum at 37° C.) was added to each well of an E-Plate 96 (Roche), and the background impedance in each well was measured. 50 μl of human small airway epithelial cell suspension (10,000 cells/well) was then added to the appropriate wells of the E-Plate 96. Cell index was monitored for each well of the E-Plate 96 in a RTCA SP Station within the cell culture incubator. After overnight incubation for 16-20 hours at 5% CO2 and 95% humidity, 100 μl of test compound solution (test compounds were prepared in DMSO and diluted with cell culture medium to a concentration of 10 μM, 20 μM or 30 μM of test compound with a final DMSO concentration of 0.25%) was added to the appropriate wells of the E-Plate 96 and cell index values were measured immediately following compound treatment every 20 seconds for 3 hours. Cell index value is baseline-corrected by subtracting the cell index of vehicle-treated cells and normalized by dividing by the cell index at the time point immediately before compound addition. Baseline normalized cell index as a function of time is plotted using Roche RTCA software.

lung fibrosis = experiment: In vivo screening: bleomycin-treated spontaneous hypertensive rats, lung fibrosis quantitated by histomorphometry (Masson Trichrome); settings: SHR given bleomycin at 14 weeks, 500 pmol/kg/min in drinking solution (5% ethanol) for 4 weeks from 16 weeks of age; for Fibrosis in the lung compared to 16 week controls: vs 16 week control (reversal of established fibrosis); for Fibrosis in the lung compared to 20 week controls: vs 20 week vehicle control (prevention)
Procedure: Fourteen week old spontaneous hypertensive rats (SHR) were anaesthetised using 3% isoflurane, the tongue was gently pulled forward and bleomycin […] in 200 μL of normal saline placed in the distal oropharynx using a micropipette while the nose is gently closed. Rats were then left to recover from anaesthesia. At 16 weeks of age SHR were randomised to control (16 weeks or 20 weeks) or treated groups. The 16 week controls were anaesthetised and had blood sampled and tissues harvested. The 20 week controls received drinking solution alone (5% ethanol) while the treated groups received test compound dissolved in the drinking water with concentration adjusted twice weekly to maintain a dose of 500 pmol/kg/min for 4 weeks. At 20 weeks of age rats were anaesthetised and had blood sampled and tissues harvested.
For histological examination lungs were fixed in formalin and sections from each of two levels were stained using Masson Trichrome. Fibrosis was quantitated by histomorphometry by an observer blinded to experimental group.

| SMILES | Cellular impedance (baseline normalized cell index) response [1] | Fibrosis in the lung compared to 16 week controls (lung fibrosis) | Fibrosis in the lung compared to 20 week controls (lung fibrosis) |
| --- | --- | --- | --- |
| Cc1nc(C)c(-c2ccc(-c3cccc(NS(C)(=O)=O)c3)c(CCC(N)=O)c2)s1 [D32, 4-(2,4-Dimethyl-1,3-thiazol-5-yl)-3-(3′-((methylsulfonyl)amino)biphenyl-2-yl)propanamide] | Negative impedance responses |  |  |
| NOCCc1cc(-c2ccccc2)ccc1-c1cccc(O)c1 [A56] | Negative impedance responses |  |  |
| NC(=O)CCc1cc(-c2cncnc2)ccc1-c1cc(N)ncn1 [D6, 3-(2-(6-Aminopyrimidin-4-yl)-5-(pyrimidin-5-yl)phenyl)propanamide] | Negative impedance responses | decreased | decreased |
| CS(=O)(=O)NC1=CC(c2cccc(NS(C)(=O)=O)c2)(c2cnccn2)CC(CCC(N)=O)=C1 (stereo not drawn) [D16, 3-(3′,5-Bis((methylsulfonyl)amino)-1-(pyrazin-2-yl)biphenyl-3-yl)propanamide] | Negative impedance responses |  |  |
| O=C1NC(=O)C(Cc2cc(-c3ccccc3)ccc2-c2cccc(O)c2)N1 (stereo not drawn) [A32] | Negative impedance responses | decreased | decreased |
| O=C1NC(=O)C(Cc2cc(-c3ccccc3)ccc2-c2cccc(O)c2)O1 (stereo not drawn) [A79] | Negative impedance responses | decreased | decreased |
| CS(=O)(=O)Nc1cc(-c2ccc(-c3cccnn3)cc2CCC(N)=O)ccn1 [D11, 3-(2-(2-((Methylsulfonyl)amino)pyridin-4-yl)-5-(pyridazin-3-yl)phenyl)propanamide] | negative deflection |  |  |
| Cc1n[nH]c(C)c1-c1ccc(-c2cccc(O)c2)c(CCC(N)=O)c1 [P42] | Negative impedance responses |  |  |
| NC(=O)C=Cc1cc(-c2cncnc2)ccc1-c1cc(N)cc(N)c1 [D172, 3-(2-(3,5-Diaminophenyl)-5-(pyrimidin-5-yl)phenyl)propenamide] | Negative impedance responses |  |  |
| O=C1NCCC1Cc1cc(-c2ccccc2)ccc1-c1cccc(O)c1 (stereo not drawn) [A26] | Negative impedance responses |  |  |
| NC(=O)CCc1cc(-c2cnccn2)ccc1-c1cc(N)ncn1 [D18, 3-(2-(6-Aminopyrimidin-4-yl)-5-(pyrazin-2-yl)phenyl)propanamide] | Negative impedance responses |  |  |
| NC(=O)CCc1cc(-c2cccnc2)ccc1-c1cccc(NC(=O)Nc2cccc(-c3ccc(-c4cccnc4)cc3CCC(N)=O)c2)c1 [D167] | Negative impedance responses |  |  |
| Cc1ccsc1-c1ccc(-c2cccc(O)c2)c(CCC(N)=O)c1 [P43] | Negative impedance responses |  |  |
| Nc1nocc1Cc1cc(-c2ccccc2)ccc1-c1cccc(O)c1 [A35] | Negative impedance responses |  |  |
| CS(=O)(=O)Nc1cc(NS(C)(=O)=O)cc(-c2ccc(-c3cccnn3)cc2CCC(N)=O)c1 [D10] | Negative impedance responses |  |  |
| CCOC(=O)C(Cc1cc(-c2cncnc2)ccc1-c1cc(N)ncn1)C(=O)OCC [D5, Diethyl (2-(6-aminopyrimidin-4-yl)-5-(pyrimidin-5-yl)benzyl)propanedioate] | Negative impedance responses |  |  |

| SMILES | Cellular impedance (baseline normalized cell index) response [1] | Fibrosis in the lung compared to 16 week controls (lung fibrosis) | Fibrosis in the lung compared to 20 week controls (lung fibrosis) |
| --- | --- | --- | --- |
| Cc1cscc1-c1ccc(-c2cccc(O)c2)c(CCC(N)=O)c1 [P44] | Negative impedance responses |  |  |
| NC(=O)CCc1cc(-c2cccnn2)ccc1-c1cccc(O)c1 [P14, 3-[3′-Hydroxy-4-(pyridazin-3-yl)biphenyl-2-yl]propanamide] | Negative impedance responses |  |  |
| NC(=O)CCc1cc(-c2ccncn2)ccc1-c1cccc(O)c1 [P25, 3-[3′-Hydroxy-4-(pyrimidin-4-yl)biphenyl-2-yl]propanamide] | Negative impedance responses |  |  |
| NC(=O)CCc1cc(-c2cnccn2)ccc1-c1cccc(O)c1 [P13, 3-[3′-Hydroxy-4-(pyrazin-2-yl)biphenyl-2-yl]propanamide] | Negative impedance responses |  | decreased |
| CS(=O)(=O)Nc1cccc(-c2ccc(-c3cccnc3)cc2CCC(N)=O)c1 [D28, 3-(3′-((Methylsulfonyl)amino)-4-(pyridin-3-yl)biphenyl-2-yl)propanamide] | Negative impedance responses |  |  |
| NC(=O)CCc1cc(-c2cccnn2)ccc1-c1cc(N)ncn1 [D12, 3-(2-(6-Aminopyrimidin-4-yl)-5-(pyridazin-3-yl)phenyl)propanamide] | Negative impedance responses |  |  |
| NC(=O)C=Cc1cc(-c2cncnc2)ccc1-c1ccnc(N)c1 [D171, 3-[2-(2-Aminopyridin-4-yl)-5-(pyrimidin-5-yl)phenyl]propenamide] | Negative impedance responses |  |  |
| NC(CCc1cc(-c2ccccc2)ccc1-c1cccc(O)c1)C(F)(F)F (stereo not drawn) [A6] | Negative impedance responses | decreased | decreased |
| CS(=O)(=O)Nc1cc(NS(C)(=O)=O)cc(-c2ccc(-c3cncnc3)cc2CCC(N)=O)c1 [D4] | Negative impedance responses |  |  |
| NC(=O)CCc1cc(-c2cccnc2)ccc1-c1ccc2[nH]c(=O)[nH]c2c1 [D30, 3-(2-(2-Oxo-2,3-dihydro-1H-benzimidazol-5-yl)-5-(pyridin-3-yl)phenyl)propanamide] | Negative impedance responses | decreased | decreased |
| O=C1CC(Cc2cc(-c3ccccc3)ccc2-c2cccc(O)c2)C(=O)N1 (stereo not drawn) [A30] | Negative impedance responses |  |  |
| CNS(=O)(=O)Nc1cccc(-c2ccc(-c3cccnc3)cc2CCC(N)=O)c1 [D31, 3-(3′-((Methylsulfamoyl)amino)-4-(pyridin-3-yl)biphenyl-2-yl)propanamide] | Negative impedance responses |  |  |
| CS(=O)(=O)Nc1cccc(-c2ccc(-c3ccc(F)cc3)cc2CCC(N)=O)c1 [D35, 3-(4″-Fluoro-3-((methylsulfonyl)amino)-1,1′:4′,1″-terphenyl-2′-yl)propanamide] | Negative impedance responses |  |  |
| CS(=O)(=O)Nc1cc(-c2ccc(-c3cnccn3)cc2CCC(N)=O)ccn1 [D17, 3-[2-(2-[(Methylsulfonyl)amino]pyridin-4-yl)-5-(pyrazin-2-yl)phenyl]propanamide] | Negative impedance responses |  |  |
| O=C1NCC/C1=C\c1cc(-c2ccccc2)ccc1-c1cccc(O)c1 [A27] | Negative impedance responses |  |  |
| NC(=O)CCc1cc(-c2ccccc2)ccc1-c1cccc(O)c1 [VB0004] | Negative impedance responses | decreased | decreased |
